Legend:
[1] = system: barnyardgrass (Echinochloa crus-galli); assay: Test A preemergence, barnyardgrass; type: in vivo; settings: Echinochloa crus-galli, pre-emergence, 240 h, 0 to 100 scale (0 no effect, 100 complete control), read-out: Plant response rating, Barnyardgrass; for pest or weed control at 31 g/ha: 31 g ai/ha; for pest or weed control at 125 g/ha: 125 g ai/ha
kochia (Kochia scoparia) [2] = assay: Test A preemergence, kochia; type: in vivo; settings: Bassia scoparia, pre-emergence, 240 h, 0 to 100 scale (0 no effect, 100 complete control), read-out: Plant response rating, Kochia; for pest or weed control at 31 g/ha: 31 g ai/ha; for pest or weed control at 125 g/ha: 125 g ai/ha
[3] = system: ragweed (common ragweed, Ambrosia elatior); assay: Test A preemergence, ragweed; type: in vivo; settings: Ambrosia artemisiifolia, pre-emergence, 240 h, 0 to 100 scale (0 no effect, 100 complete control), read-out: Plant response rating, Ragweed; for pest or weed control at 31 g/ha: 31 g ai/ha; for pest or weed control at 125 g/ha: 125 g ai/ha
[4] = system: ryegrass, Italian (Italian ryegrass, Lolium multiflorum); assay: Test A preemergence, ryegrass, Italian; type: in vivo; settings: Lolium multiflorum, pre-emergence, 240 h, 0 to 100 scale (0 no effect, 100 complete control), read-out: Plant response rating, Ryegrass, Italian; for pest or weed control at 31 g/ha: 31 g ai/ha; for pest or weed control at 125 g/ha: 125 g ai/ha
[5] = system: foxtail, green (green foxtail, Setaria viridis); assay: Test A preemergence, foxtail, green; type: in vivo; settings: Setaria, pre-emergence, 240 h, 0 to 100 scale (0 no effect, 100 complete control), read-out: Plant response rating, Foxtail, Green; for pest or weed control at 31 g/ha: 31 g ai/ha; for pest or weed control at 125 g/ha: 125 g ai/ha
[6] = system: pigweed (Amaranthus retroflexus); assay: Test A preemergence, pigweed; type: in vivo; settings: Amaranthus retroflexus, pre-emergence, 240 h, 0 to 100 scale (0 no effect, 100 complete control), read-out: Plant response rating, Pigweed; for pest or weed control at 31 g/ha: 31 g ai/ha; for pest or weed control at 125 g/ha: 125 g ai/ha
[7] = system: barnyardgrass (Echinochloa crus-galli); assay: Test A postemergence, barnyardgrass; type: in vivo; settings: Echinochloa crus-galli, post-emergence, 240 h, 0 to 100 scale (0 no effect, 100 complete control), read-out: Plant response rating, Barnyardgrass; for pest or weed control at 31 g/ha: 31 g ai/ha; for pest or weed control at 125 g/ha: 125 g ai/ha
kochia (Kochia scoparia) [8] = assay: Test A postemergence, kochia; type: in vivo; settings: Bassia scoparia, post-emergence, 240 h, 0 to 100 scale (0 no effect, 100 complete control), read-out: Plant response rating, Kochia; for pest or weed control at 31 g/ha: 31 g ai/ha; for pest or weed control at 125 g/ha: 125 g ai/ha
[9] = system: ragweed (common ragweed, Ambrosia elatior); assay: Test A postemergence, ragweed; type: in vivo; settings: Ambrosia artemisiifolia, post-emergence, 240 h, 0 to 100 scale (0 no effect, 100 complete control), read-out: Plant response rating, Ragweed; for pest or weed control at 31 g/ha: 31 g ai/ha; for pest or weed control at 125 g/ha: 125 g ai/ha
[10] = system: ryegrass, Italian (Italian ryegrass, Lolium multiflorum); assay: Test A postemergence, ryegrass, Italian; type: in vivo; settings: Lolium multiflorum, post-emergence, 240 h, 0 to 100 scale (0 no effect, 100 complete control), read-out: Plant response rating, Ryegrass, Italian; for pest or weed control at 31 g/ha: 31 g ai/ha; for pest or weed control at 125 g/ha: 125 g ai/ha
[11] = system: pigweed (Amaranthus retroflexus); assay: Test A postemergence, pigweed; type: in vivo; settings: Amaranthus retroflexus, post-emergence, 240 h, 0 to 100 scale (0 no effect, 100 complete control), read-out: Plant response rating, Pigweed; for pest or weed control at 31 g/ha: 31 g ai/ha; for pest or weed control at 125 g/ha: 125 g ai/ha
[12] = system: wheat (Triticum aestivum); assay: Test A postemergence, wheat; type: in vivo; settings: Triticum aestivum, post-emergence, 240 h, 0 to 100 scale (0 no effect, 100 complete control), read-out: Plant response rating, Wheat; for plant injury at 31 g/ha: 31 g ai/ha; for plant injury at 125 g/ha: 125 g ai/ha
corn (Zea mays) = assay: Test A postemergence, corn; type: in vivo; settings: Zea mays, post-emergence, 240 h, 0 to 100 scale (0 no effect, 100 complete control); for Corn plant response rating (crop injury, 0 = no effect, 100 = complete kill) at 31 g/ha: 31 g ai/ha; for Corn plant response rating (crop injury, 0 = no effect, 100 = complete kill) at 125 g/ha: 125 g ai/ha
[13] = system: blackgrass (Alopecurus myosuroides); assay: Test A postemergence, blackgrass; type: in vivo; settings: Alopecurus myosuroides, post-emergence, 240 h, 0 to 100 scale (0 no effect, 100 complete control), read-out: Plant response rating, Blackgrass; for pest or weed control at 31 g/ha: 31 g ai/ha; for pest or weed control at 125 g/ha: 125 g ai/ha
[14] = system: galium (catchweed bedstraw, Galium aparine); assay: Test A postemergence, galium; type: in vivo; settings: Galium, post-emergence, 240 h, 0 to 100 scale (0 no effect, 100 complete control), read-out: Plant response rating, Galium; for pest or weed control at 31 g/ha: 31 g ai/ha; for pest or weed control at 125 g/ha: 125 g ai/ha
rice (Oryza sativa) = assay: Test B flooded paddy test, rice; settings: Oryza sativa, read-out: Plant response rating, Rice (0 to 100 scale, 0 is no effect, 100 is complete control)
[15] = system: ducksalad (Heteranthera limosa); assay: Test B flooded paddy test, ducksalad; settings: Heteranthera limosa, read-out: Plant response rating, Ducksalad (0 to 100 scale, 0 is no effect, 100 is complete control)
[16] = system: barnyardgrass (Echinochloa crus-galli); assay: Test B flooded paddy test, barnyardgrass; settings: Echinochloa crus-galli, read-out: Plant response rating, Barnyardgrass (0 to 100 scale, 0 is no effect, 100 is complete control)

## CN1C(=O)c2cccc(Oc3ncc(Cl)cn3)c2C1CCCC(F)(F)F (stereo not drawn) [Compound 12, 4-[(5-Chloro-2-pyrimidinyl)oxy]-2,3-dihydro-2-methyl-3-(4,4,4-trifluorobutyl)-1H-isoindol-1-one]
[1]
  pest or weed control at 31 g/ha: 0%
  pest or weed control at 125 g/ha: 0%
Kochia (Kochia scoparia) [2]
  pest or weed control at 31 g/ha: 0%
  pest or weed control at 125 g/ha: 0%
[3]
  pest or weed control at 31 g/ha: 0%
  pest or weed control at 125 g/ha: 0%
[4]
  pest or weed control at 31 g/ha: 0%
  pest or weed control at 125 g/ha: 0%
[5]
  pest or weed control at 31 g/ha: 0%
  pest or weed control at 125 g/ha: 0%
[6]
  pest or weed control at 31 g/ha: 0%
  pest or weed control at 125 g/ha: 0%
[7]
  pest or weed control at 31 g/ha: 0%
  pest or weed control at 125 g/ha: 0%
Kochia (Kochia scoparia) [8]
  pest or weed control at 31 g/ha: 0%
  pest or weed control at 125 g/ha: 10%
[9]
  pest or weed control at 31 g/ha: 0%
  pest or weed control at 125 g/ha: 20%
[10]
  pest or weed control at 31 g/ha: 0%
  pest or weed control at 125 g/ha: 0%
[11]
  pest or weed control at 31 g/ha: 0%
  pest or weed control at 125 g/ha: 30%
[12]
  plant injury at 31 g/ha: 0%
  plant injury at 125 g/ha: 0%
Corn (Zea mays)
  Corn plant response rating (crop injury, 0 = no effect, 100 = complete kill) at 31 g/ha: 0%
  Corn plant response rating (crop injury, 0 = no effect, 100 = complete kill) at 125 g/ha: 10%
[13]
  pest or weed control at 31 g/ha: 0%
  pest or weed control at 125 g/ha: 0%
[14]
  pest or weed control at 31 g/ha: 0%
  pest or weed control at 125 g/ha: 10%
Rice (Oryza sativa)
  plant injury at 250 g/ha: 0%
[15]
  pest or weed control at 250 g/ha: 0%
[16]
  pest or weed control at 250 g/ha: 0%

## O=C1NC(CCCC(F)(F)F)c2c(Oc3ncc(Cl)cn3)cccc21 (stereo not drawn) [Compound 13, 4-[(5-Chloro-2-pyrimidinyl)oxy]-2,3-dihydro-3-(4,4,4-trifluorobutyl)-1H-isoindol-1-one]
[1]
  pest or weed control at 31 g/ha: 0%
  pest or weed control at 125 g/ha: 0%
Kochia (Kochia scoparia) [2]
  pest or weed control at 31 g/ha: 0%
  pest or weed control at 125 g/ha: 0%
[3]
  pest or weed control at 31 g/ha: 0%
  pest or weed control at 125 g/ha: 0%
[4]
  pest or weed control at 31 g/ha: 0%
  pest or weed control at 125 g/ha: 0%
[5]
  pest or weed control at 31 g/ha: 0%
  pest or weed control at 125 g/ha: 0%
[6]
  pest or weed control at 31 g/ha: 0%
  pest or weed control at 125 g/ha: 0%
[7]
  pest or weed control at 31 g/ha: 0%
  pest or weed control at 125 g/ha: 0%
Kochia (Kochia scoparia) [8]
  pest or weed control at 31 g/ha: 0%
  pest or weed control at 125 g/ha: 0%
[9]
  pest or weed control at 31 g/ha: 0%
  pest or weed control at 125 g/ha: 0%
[10]
  pest or weed control at 31 g/ha: 0%
  pest or weed control at 125 g/ha: 0%
[11]
  pest or weed control at 31 g/ha: 0%
  pest or weed control at 125 g/ha: 10%
[12]
  plant injury at 31 g/ha: 0%
  plant injury at 125 g/ha: 0%
Corn (Zea mays)
  Corn plant response rating (crop injury, 0 = no effect, 100 = complete kill) at 31 g/ha: 0%
  Corn plant response rating (crop injury, 0 = no effect, 100 = complete kill) at 125 g/ha: 0%
[13]
  pest or weed control at 31 g/ha: 0%
  pest or weed control at 125 g/ha: 0%
[14]
  pest or weed control at 31 g/ha: 0%
  pest or weed control at 125 g/ha: 0%
Rice (Oryza sativa)
  plant injury at 250 g/ha: 0%
[15]
  pest or weed control at 250 g/ha: 0%
[16]
  pest or weed control at 250 g/ha: 0%

Source: patent US11427549B2, “Pyrimidinyloxy benzo-fused compounds as herbicides” (FMC Corporation, priority 2017, dated 2022)
